Here are results for 14 compounds from PubChem BioAssay AID198 (DTP/NCI, 2004).

Several values for one entry are separate records, joined by “and”; a condition that tells them apart may be missing. Equal entries are not always repeated. Toxic doses and inconclusive results are not listed.

For this assay, the system named is B16 melanoma ip, C57BL/6 mice, median survival T/C. Kind of assay: NCI In Vivo Anticancer Drug Screen. Data for tumor model B16 Melanoma (intraperitoneal) in C57BL/6 mice. Conditions: endpoint: median survival time, schedule: Q01DX009 (ip), higher = longer survival. Here is the method:
The antitumor activity of compounds was measured in mice bearing transplantable tumors. Survival or tumor size were measured and the results are expressed as the measurement made in the treated group (T) divided by the measurement made in the vehicle treated control group (C). The tumor model used in this assay is B16 Melanoma (intraperitoneal) in C57BL/6 mice

The mark [1] stands for this setting: dose: 50.0 mg/kg/injection, vehicle: saline.
Setting [2] is: dose: 3.13 mg/kg/injection, vehicle: saline.
[3] abbreviates: dose: 6.25 mg/kg/injection, vehicle: saline.
The mark [4] stands for this setting: dose: 12.5 mg/kg/injection, vehicle: saline.
Where [5] appears, read: dose: 25.0 mg/kg/injection, vehicle: saline.
The mark [6] stands for this setting: dose: 6.25 mg/kg/injection, vehicle: saline with Tween-80.
Setting [7] is: dose: 12.5 mg/kg/injection, vehicle: saline with Tween-80.
Where [8] appears, read: dose: 1.5 mg/kg/injection, vehicle: saline.
Setting [9] is: dose: 3.0 mg/kg/injection, vehicle: saline.

Consider `CC1([N+](=O)[O-])COP(=O)(NC2CCCC2)OC1` (stereo not drawn), for which the T/C is 100 % of control under setting [1]; 96 % of control (dose: 100.0 mg/kg/injection, vehicle: saline); 96 % of control (dose: 200.0 mg/kg/injection, vehicle: saline).
Consider `CCCCc1ccc(NC(=O)N(CCCl)N=O)cc1`, for which the T/C is 200 % of control under setting [2] and 210 % of control under setting [3].
On to `Nc1nc2ncc(CNc3ccc(C(=O)NC(CCC(=O)O)C(=O)O)cc3)nc2c(=O)[nH]1` (stereo not drawn), for which the T/C reads like this: under setting [4], 100 % of control and 103 % of control; under setting [5], 97 % of control and 106 % of control.
For the compound `OC1CCCC2CCC[N-]C12.OC1CCCC2CCC[N-]C12.[O]=[V][OH]` (stereo not drawn), the T/C is 107 % of control under setting [6]; 107 % of control under setting [7]; 107 % of control (dose: 25.0 mg/kg/injection, vehicle: saline with Tween-80).
Consider `COc1cc([C@@H]2c3cc4c(cc3[C@H](O)[C@H]3COC(=O)[C@H]23)OCO4)cc(OC)c1OC`, for which the T/C is 106 % of control (dose: 2.0 mg/kg/injection, vehicle: saline); 120 % of control (dose: 4.0 mg/kg/injection, vehicle: saline); 113 % of control (dose: 8.0 mg/kg/injection, vehicle: saline); 96 % of control (dose: 16.0 mg/kg/injection, vehicle: saline).
Take `N=[N+]=CC(=O)OCC(N)C(=O)O` (stereo not drawn): the T/C by setting is: under setting [2], 96 % of control; under setting [3], 100 % of control; under setting [4], 86 % of control; under setting [5], 90 % of control.
For the compound `NC(=O)Oc1cc(OC(N)=O)cc(N(CCCl)CCCl)c1`, the T/C under setting [4] was 110 % of control and the T/C under setting [1] is 123 % of control.
As to `N[C@@H](Cc1ccc(N(CCCl)CCCl)cc1)C(=O)O`, the T/C under setting [8] was 170 % of control and 228 % of control; the T/C under setting [9] is 210 % of control; the T/C (dose: 6.0 mg/kg/injection, vehicle: saline) was 226 % of control; the T/C (dose: 12.0 mg/kg/injection, vehicle: saline) is 93 % of control.
On to `CN1Cc2c(ccc3c2OCO3)[C@@H]2[C@H](O)Cc3cc4c(cc3[C@@H]21)OCO4`, for which the T/C (dose: 62.5 mg/kg/injection, vehicle: saline with Tween-80) was 107 % of control; the T/C (dose: 125.0 mg/kg/injection, vehicle: saline with Tween-80) was 110 % of control; the T/C (dose: 250.0 mg/kg/injection, vehicle: saline with Tween-80) is 117 % of control.
As for `CN(Cc1cnc2nc(N)nc(N)c2n1)c1ccc(C(=O)N[C@@H](CCC(=O)O)C(=O)O)cc1`, the T/C reads like this: (dose: 0.38 mg/kg/injection, vehicle: saline) 100 % of control and 106 % of control; (dose: 0.75 mg/kg/injection, vehicle: saline) 100 % of control and 106 % of control; under setting [8], 93 % of control and 100 % of control; under setting [9], 100 % of control.
As for `COc1cc([C@@H]2c3cc4c(cc3C[C@H]3COC(=O)[C@@H]32)OCO4)cc(OC)c1OC`, the T/C is 110 % of control under setting [6] and 117 % of control under setting [7].
For `COC1=C(N)C(=O)c2nc(-c3nc(C(=O)O)c(C)c(-c4ccc(OC)c(OC)c4O)c3N)ccc2C1=O`, the T/C is 103 % of control (dose: 0.03 mg/kg/injection, vehicle: saline); 93 % of control and 100 % of control and 118 % of control (dose: 0.05 mg/kg/injection, vehicle: saline).
As for `O=NN(CCCl)C(=O)NCCCl`, the T/C is, setting by setting: (dose: 7.5 mg/kg/injection, vehicle: saline) 164 % of control and 213 % of control; (dose: 15.0 mg/kg/injection, vehicle: saline) 121 % of control.
For `O=C1CN(CCN2CC(=O)NC(=O)C2)CC(=O)N1`, the T/C (dose: 30.0 mg/kg/injection, vehicle: saline) is 150 % of control.
